Reference: PubChem BioAssay (NCI)
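Following 48 hours of exposure in 96-well plates, responses at five concentrations were used to interpolate endpoints linearly. GI50 is the concentration that inhibits growth by half. TGI marks complete inhibition of growth.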

Legend:
Assay in all cases: growth of human tumour cells (NCI), 48 h
NCI-H460 lung = system: NCI-H460 lung
UACC-62 melanoma = system: UACC-62 melanoma
COLO 205 colon = system: COLO 205 colon
RXF 393 renal = system: RXF 393 renal
EKVX NSCLC = system: EKVX NSCLC
OVCAR-4 ovarian = system: OVCAR-4 ovarian
A498 renal = system: A498 renal
HOP-92 NSCLC = system: HOP-92 NSCLC
HS 578T breast = system: HS 578T breast
RPMI-8226 leukemia = system: RPMI-8226 leukemia

| Structure (SMILES) | GI50 (NCI-H460 lung) [µM] | TGI (NCI-H460 lung) [µM] | GI50 (UACC-62 melanoma) [µM] | TGI (UACC-62 melanoma) [µM] | GI50 (COLO 205 colon) [µM] | TGI (COLO 205 colon) [µM] | GI50 (RXF 393 renal) [µM] | TGI (RXF 393 renal) [µM] | GI50 (EKVX NSCLC) [µM] | TGI (EKVX NSCLC) [µM] | GI50 (OVCAR-4 ovarian) [µM] | TGI (OVCAR-4 ovarian) [µM] | GI50 (A498 renal) [µM] | TGI (A498 renal) [µM] | GI50 (HOP-92 NSCLC) [µM] | TGI (HOP-92 NSCLC) [µM] | GI50 (HS 578T breast) [µM] | TGI (HS 578T breast) [µM] | GI50 (RPMI-8226 leukemia) [µM] | TGI (RPMI-8226 leukemia) [µM] |
| --- | --- | --- | --- | --- | --- | --- | --- | --- | --- | --- | --- | --- | --- | --- | --- | --- | --- | --- | --- | --- |
| N#Cc1c(N)nc(N2CCOCC2)c(C#N)c1-c1c(Cl)cccc1Cl | 6.39 | 44.6 | 3.87 | 19.7 | 7.14 | 22.8 | 4.58 | 28.3 | 7.92 | > 100 | 13.1 | > 100 | 3.75 | 23.1 | 4.68 | 46 | 5.07 | 63.9 | 4.41 | 47.5 |
| Cc1cc(N(CCNc2ccnc3cc(Cl)ccc23)Cc2ccc3c(c2)OCO3)nc(N2CCCC2)n1 | – | – | 1.88 | 3.49 | 1.53 | 3.17 | 1.28 | 2.74 | 2.74 | 14.2 | 1.39 | 3.24 | 1.61 | 3.94 | 0.695 | 2.86 | 1.72 | 5.02 | 1.47 | 3.99 |
| O=C1C(Cl)=C(NCCCN(CCCNC2=C(Cl)C(=O)c3ccccc3C2=O)C2=C(Cl)C(=O)c3ccccc3C2=O)C(=O)c2ccccc21 | 3.02 | > 100 | 1.98 | 4.69 | – | – | 10.7 | 22.5 | 2.62 | 13.9 | 1.49 | 2.85 | 19.6 | 39.4 | 2.23 | 14 | 2.88 | > 100 | 3.8 | > 100 |
| CCOC(=O)/C=C1/SC(=Nc2ccc(C#N)cc2)N(Cc2ccco2)C1=O | 5.66 | 19.7 | 2.23 | 5.25 | – | – | 1.48 | 2.96 | 5.66 | 30.2 | 2.74 | 11.2 | 14.8 | 30 | 4.51 | 22.9 | 6.96 | > 100 | 2.4 | 7.46 |
| COc1cc(C(=O)n2nc(N)c3c(C)cc(C)nc32)cc(OC)c1OC | > 100 | > 100 | 54.1 | > 100 | > 40.9 | > 100 | 25.3 | > 100 | – | – | > 100 | > 100 | > 20.8 | > 100 | > 100 | > 100 | > 100 | > 100 | > 82.1 | > 100 |
| Cc1c(-c2ccccn2)ccc2ccccc12 | – | > 100 | – | > 100 | – | > 100 | – | 93.2 | – | > 100 | – | – | – | > 100 | – | > 100 | – | > 100 | – | 44.1 |
| CC(C)(C)[Si](C)(C)OC1[C@@H](COC(=O)NC(=O)CCl)O[C@@H](n2cnc3c(N)ncnc32)[C@H]1O[Si](C)(C)C(C)(C)C (some centres undefined) | 7.22 | 14.9 | 6.14 | 12.7 | 1.9 | 4.79 | 2.33 | 7.99 | – | – | 3.89 | 10.7 | 6.58 | 13.1 | 1.76 | 9.24 | 7.62 | 19.3 | 1.54 | 5.63 |
